# According to US8399465B2, “Compounds with two fused bicyclic heteroaryl moieties as modulators of leukotriene A4 hydrolase” (Janssen Pharmaceutica NV, priority 2009, dated 2013):
# How the values were obtained:
# [1] = biological target: T1, recombinant human LTA4 hydrolase (rhLTA4H) (Homo sapiens, UniProt P09960); test: Recombinant human LTA4 hydrolase assay for LTA4 hydrolase inhibitor activity; type: biochemical; conditions: rhLTA4H, LTB4 by immunoassay; single determination or average of two or more; mark after value = form tested: ′ free base, ″ hydrochloride, ^ formate; read-out: IC50
# T1 construct: made in house; host or cells: Spodoptera frugiperda (Sf-9) cells, baculovirus (pFastBac1)
# T1 sequence (P09960 1-611): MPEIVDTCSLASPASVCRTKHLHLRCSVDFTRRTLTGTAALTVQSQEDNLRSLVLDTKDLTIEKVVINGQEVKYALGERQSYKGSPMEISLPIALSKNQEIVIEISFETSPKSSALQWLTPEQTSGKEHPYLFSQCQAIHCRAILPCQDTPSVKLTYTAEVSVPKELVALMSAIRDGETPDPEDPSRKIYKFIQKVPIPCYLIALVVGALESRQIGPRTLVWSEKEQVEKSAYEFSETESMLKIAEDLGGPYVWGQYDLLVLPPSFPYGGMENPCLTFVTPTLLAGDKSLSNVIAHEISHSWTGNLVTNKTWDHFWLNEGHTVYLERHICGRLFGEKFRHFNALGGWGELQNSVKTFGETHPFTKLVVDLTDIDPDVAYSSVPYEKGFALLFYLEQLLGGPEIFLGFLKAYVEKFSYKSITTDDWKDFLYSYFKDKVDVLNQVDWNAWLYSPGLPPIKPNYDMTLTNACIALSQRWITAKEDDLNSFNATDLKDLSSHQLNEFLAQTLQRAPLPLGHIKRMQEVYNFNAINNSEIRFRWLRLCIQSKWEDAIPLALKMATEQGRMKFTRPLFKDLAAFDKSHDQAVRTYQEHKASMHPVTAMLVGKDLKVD
# How it was run: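 Baculovirus/Sf-9-expressed human LTA4H (10 ng) was preincubated 10 min at rt with compound in assay buffer (10% DMSO in compound dilution), then reacted 30 min at rt with LTA4 free acid made from its methyl ester. LTB4 produced was measured by ELISA after dilution; IC50 from non-linear regression, single or averaged determinations.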
# [2] = tested on: LTB4 production in murine blood (LTA4H); test: LTB4 production by calcium ionophore-stimulated murine blood for LTA4H inhibitor activity; type: cell-based, CD-1 mice; conditions: Mus musculus; murine blood diluted 1 in 15, A23187 stimulated; single determination or average; mark after value = form tested: ′ free base, ″ hydrochloride, ^ formate; read-out: IC50
# How it was run: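 Heparinized blood from CD-1 mice was preincubated with compound for 15 min at 37° C, then stimulated with calcium ionophore A23187 (final 7 μg/mL) for 30 min. Centrifugation stopped the reaction, and LTB4 in the supernatant was measured by enzyme immunoassay. Values are single determinations or means of two or more.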
IC50 [1] [nM],IC50 [2] [nM],SMILES
16,230,"O=C1CN(Cc2coc3cc(Oc4nc5ncccc5s4)ccc23)CCN1 [Example 342, 4-[6-(Thiazolo[4,5-b]pyridin-2-yloxy)-benzofuran-3-ylmethyl]-piperazin-2-one]"
21,100,"c1ccc(CNCc2coc3cc(Oc4nc5ncccc5s4)ccc23)cc1 [Example 344, Benzyl-[6-(thiazolo[4,5-b]pyridin-2-yloxy)-benzofuran-3-ylmethyl]-amine]"
26,38,"FC1CCCN(Cc2coc3cc(Oc4nc5ncccc5s4)ccc23)C1 (centres unmarked) [Example 350, 2-[3-(3-Fluoro-piperidin-1-ylmethyl)-benzofuran-6-yloxy]-thiazolo[4,5-b]pyridine]"
2,94,"O=c1[nH]ncn1C1CCN(Cc2coc3cc(Oc4nc5ncccc5s4)ccc23)CC1 [Example 351, 4-{1-[6-(Thiazolo[4,5-b]pyridin-2-yloxy)-benzofuran-3-ylmethyl]-piperidin-4-yl}-2,4-dihydro-[1,2,4]triazol-3-one]"
6,22,"CCN(C(C)=O)C1CCN(Cc2coc3cc(Oc4nc5ncccc5s4)ccc23)CC1 [Example 353, N-Ethyl-N-{1-[6-(thiazolo[4,5-b]pyridin-2-yloxy)-benzofuran-3-ylmethyl]-piperidin-4-yl}-acetamide]"
7,200,"O=C(C1CCOC1)N1CC2CN(Cc3coc4cc(Oc5nc6ncccc6s5)ccc34)CC2C1 (centres unmarked) [Example 354, (Tetrahydro-furan-3-yl)-{5-[6-(thiazolo[4,5-b]pyridin-2-yloxy)-benzofuran-3-ylmethyl]-hexahydro-pyrrolo[3,4-c]pyrrol-2-yl}-methanone]"
18,260,"O=C(c1cnccn1)N1C[C@@H]2C[C@H]1CN2Cc1coc2cc(Oc3nc4ncccc4s3)ccc12 [Example 356, (1S,4S)-Pyrazin-2-yl-{5-[6-(thiazolo[4,5-b]pyridin-2-yloxy)-benzofuran-3-ylmethyl]-2,5-diaza-bicyclo[2.2.1]hept-2-yl}-methanone]"
9,14,"O=C(c1ccno1)N1C[C@@H]2C[C@H]1CN2Cc1coc2cc(Oc3nc4ncccc4s3)ccc12 [Example 358, (1S,4S)-Isoxazol-5-yl-{5-[6-(thiazolo[4,5-b]pyridin-2-yloxy)-benzofuran-3-ylmethyl]-2,5-diaza-bicyclo[2.2.1]hept-2-yl}-methanone]"
8,190,"O=C(c1ccoc1)N1CC2CN(Cc3coc4cc(Oc5nc6ncccc6s5)ccc34)CC2C1 (centres unmarked) [Example 359, Furan-3-yl-{5-[6-(thiazolo[4,5-b]pyridin-2-yloxy)-benzofuran-3-ylmethyl]-hexahydro-pyrrolo[3,4-c]pyrrol-2-yl}-methanone]"
18,310,"CS(=O)(=O)NCCC1CCN(Cc2coc3cc(Oc4nc5ccccc5s4)ccc23)CC1 [Example 364, N-(2-{1-[6-(Benzothiazol-2-yloxy)-benzofuran-3-ylmethyl]-piperidin-4-yl}-ethyl)-methanesulfonamide]"
26,170,"CC(=O)NC1CCN(C(=O)c2coc3cc(Oc4nc5ncccc5s4)ccc23)CC1 [Example 368, N-{1-[6-(Thiazolo[4,5-b]pyridin-2-yloxy)-benzofuran-3-carbonyl]-piperidin-4-yl}-acetamide]"
34,100,"CC(C)N(C)C(=O)c1coc2cc(Oc3nc4ncccc4s3)ccc12 [Example 373, 6-(Thiazolo[4,5-b]pyridin-2-yloxy)-benzofuran-3-carboxylic acid isopropyl-methyl-amide]"
22,110,"NC(=O)C1CCN(C(=O)c2coc3cc(Oc4nc5ncccc5s4)ccc23)CC1 [Example 378, 1-[6-(Thiazolo[4,5-b]pyridin-2-yloxy)-benzofuran-3-carbonyl]-piperidine-4-carboxylic acid amide]"
7,35,"CC(=O)N1CCN(C(=O)c2coc3cc(Oc4nc5ncccc5s4)ccc23)CC1 [Example 380, 1-{4-[6-(Thiazolo[4,5-b]pyridin-2-yloxy)-benzofuran-3-carbonyl]-piperazin-1-yl}-ethanone]"

# More lines, now with the values behind:
SMILES,IC50 [1] [nM],IC50 [2] [nM]
"Fc1ccc(CNCc2coc3cc(Oc4nc5ncccc5s4)ccc23)cc1 [Example 345, (4-Fluoro-benzyl)-[6-(thiazolo[4,5-b]pyridin-2-yloxy)-benzofuran-3-ylmethyl]-amine]",7,72
"OC1(c2ccc(Cl)cc2)CCN(Cc2coc3cc(Oc4nc5ncccc5s4)ccc23)CC1 [Example 347, 4-(4-Chloro-phenyl)-1-[6-(thiazolo[4,5-b]pyridin-2-yloxy)-benzofuran-3-ylmethyl]-piperidin-4-ol]",24,130
"OC1(c2ccc(Br)cc2)CCN(Cc2coc3cc(Oc4nc5ncccc5s4)ccc23)CC1 [Example 348, 4-(4-Bromo-phenyl)-1-[6-(thiazolo[4,5-b]pyridin-2-yloxy)-benzofuran-3-ylmethyl]-piperidin-4-ol]",67,360
"CC1CN(Cc2coc3cc(Oc4nc5ncccc5s4)ccc23)CC(C)O1 (centres unmarked) [Example 349, 2-[3-(2,6-Dimethyl-morpholin-4-ylmethyl)-benzofuran-6-yloxy]-thiazolo[4,5-b]pyridine]",26,860
"CC(=O)N1CC2CC(CN(Cc3coc4cc(Oc5nc6ncccc6s5)ccc34)C2)C1 [Example 352, 1-{7-[6-(Thiazolo[4,5-b]pyridin-2-yloxy)-benzofuran-3-ylmethyl]-3,7-diaza-bicyclo[3.3.1]non-3-yl}-ethanone]",50,110
"O=C(CO)N1CC2CN(Cc3coc4cc(Oc5nc6ncccc6s5)ccc34)CC2C1 (centres unmarked) [Example 355, 2-Hydroxy-1-{5-[6-(thiazolo[4,5-b]pyridin-2-yloxy)-benzofuran-3-ylmethyl]-hexahydro-pyrrolo[3,4-c]pyrrol-2-yl}-ethanone]",3,68
"O=C(C1CCC1)N1C[C@@H]2C[C@H]1CN2Cc1coc2cc(Oc3nc4ncccc4s3)ccc12 [Example 357, (1S,4S)-Cyclobutyl-{5-[6-(thiazolo[4,5-b]pyridin-2-yloxy)-benzofuran-3-ylmethyl]-2,5-diaza-bicyclo[2.2.1]hept-2-yl}-methanone]",7,220
"COC(=O)c1ccc(CN2C[C@@H]3C[C@H]2CN3Cc2coc3cc(Oc4nc5ncccc5s4)ccc23)cc1 [Example 360, (1S,4S)-4-{5-[6-(Thiazolo[4,5-b]pyridin-2-yloxy)-benzofuran-3-ylmethyl]-2,5-diaza-bicyclo[2.2.1]hept-2-ylmethyl}-benzoic acid methyl ester]",17,350
"CN(C)Cc1coc2cc(Oc3nc4ncccc4s3)ccc12 [Example 361, Dimethyl-[6-(thiazolo[4,5-b]pyridin-2-yloxy)-benzofuran-3-ylmethyl]-amine]",20,10
"CS(=O)(=O)NC1CCN(Cc2coc3cc(Oc4nc5ccccc5s4)ccc23)CC1 [Example 363, N-{1-[6-(Benzothiazol-2-yloxy)-benzofuran-3-ylmethyl]-piperidin-4-yl}-methanesulfonamide]",37,400
"NC(=O)N1C[C@@H]2C[C@H]1CN2C(=O)c1coc2cc(Oc3nc4ncccc4s3)ccc12 [Example 375, (1S,4S)-5-[6-(Thiazolo[4,5-b]pyridin-2-yloxy)-benzofuran-3-carbonyl]-2,5-diaza-bicyclo[2.2.1]heptane-2-carboxylic acid amide]",41,610
"O=C(c1coc2cc(Oc3nc4ncccc4s3)ccc12)N1CCC(F)CC1 [Example 376, (4-Fluoro-piperidin-1-yl)-[6-(thiazolo[4,5-b]pyridin-2-yloxy)-benzofuran-3-yl]-methanone]",13,85
"O=C(c1coc2cc(Oc3nc4ncccc4s3)ccc12)N1CCC(c2ccccc2)CC1 [Example 377, (4-Phenyl-piperidin-1-yl)-[6-(thiazolo[4,5-b]pyridin-2-yloxy)-benzofuran-3-yl]-methanone]",20,410
"O=C(c1coc2cc(Oc3nc4ncccc4s3)ccc12)N1CCN(C2CCCCC2)CC1 [Example 379, (4-Cyclohexyl-piperazin-1-yl)-[6-(thiazolo[4,5-b]pyridin-2-yloxy)-benzofuran-3-yl]-methanone]",10,150
